Measurements published in PubChem BioAssay (NCI).
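Briefly, cells in 96-well plates were exposed to five compound concentrations for 48 h, and endpoints were estimated by linear interpolation. Here, GI50 denotes the concentration required for 50% inhibition of growth. TGI marks complete inhibition of growth.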

Tests used:
Test in all cases: NCI anticancer screen, dose series, 48 h
HCT-116 colon = test system: HCT-116 colon
K-562 leukemia = test system: K-562 leukemia
NCI-H226 lung = test system: NCI-H226 lung
NCI-H522 lung = test system: NCI-H522 lung
RPMI-8226 leukemia = test system: RPMI-8226 leukemia
RXF 393 renal = test system: RXF 393 renal
SK-MEL-2 melanoma = test system: SK-MEL-2 melanoma
SR leukemia = test system: SR leukemia
SW-620 colon = test system: SW-620 colon
T-47D breast = test system: T-47D breast

SMILES	GI50 (HCT-116 colon)	TGI (HCT-116 colon)	GI50 (K-562 leukemia)	TGI (K-562 leukemia)	GI50 (NCI-H226 lung)	TGI (NCI-H226 lung)	GI50 (NCI-H522 lung)	TGI (NCI-H522 lung)	GI50 (RPMI-8226 leukemia)	TGI (RPMI-8226 leukemia)	GI50 (RXF 393 renal)	TGI (RXF 393 renal)	GI50 (SK-MEL-2 melanoma)	TGI (SK-MEL-2 melanoma)	GI50 (SR leukemia)	TGI (SR leukemia)	GI50 (SW-620 colon)	TGI (SW-620 colon)	GI50 (T-47D breast)	TGI (T-47D breast)
Cc1ccccc1C(C(=O)NC1CCCCC1)N(C(=O)Cn1ccnc1C)c1cccc(F)c1 (stereo not given)	46.2 µM	> 100 µM	> 100 µM	> 100 µM	> 87.4 µM	> 100 µM	> 100 µM	> 100 µM	> 100 µM	> 100 µM	7.5 µM	40.5 µM	21.3 µM	79.3 µM	> 100 µM	> 100 µM	> 100 µM	> 100 µM	> 58.4 µM	> 100 µM
CCC(=O)c1ccc2c(c1)N(CCCN1CCN(CCO)CC1)c1ccccc1S2	10.5 µM	22.9 µM	3.24 µM	9.83 µM	17.6 µM	33.8 µM	15.9 µM	32.4 µM	8.82 µM	27.6 µM	12.2 µM	26.2 µM	17.7 µM	33.4 µM	11.7 µM	28.7 µM	16.1 µM	31 µM	14 µM	31.5 µM
Oc1ccc(CN(Cc2ccc(C(F)(F)F)cc2)Cc2ccc(O)c3ncccc23)c2cccnc12	< 0.01 µM	> 100 µM	0.0224 µM	> 100 µM	0.0512 µM	11.7 µM	0.0218 µM	0.588 µM	0.0278 µM	> 100 µM	0.0485 µM		0.0232 µM	0.0804 µM	0.04 µM	> 100 µM	0.0251 µM	> 100 µM	0.028 µM	> 100 µM
COc1ccc2c(c1)C(=O)c1c-2n(CCCN2CCOCC2)c(=O)c2cc([N+](=O)[O-])ccc12	< 0.01 µM	0.0454 µM	< 0.01 µM	> 37 µM	< 0.01 µM	0.405 µM	< 0.01 µM		< 0.01 µM	0.147 µM	< 0.01 µM		0.0763 µM	3.95 µM	< 0.01 µM		< 0.01 µM	9.2 µM	< 0.01 µM	> 100 µM
Cc1cc(C)c2c(N)c3cccc(C)c3nc2n1	0.667 µM	3.85 µM	2.36 µM	8.71 µM	1.2 µM	4.49 µM	2.61 µM	9.7 µM	2.14 µM	6.78 µM	1.64 µM	3.57 µM	2.03 µM	4.97 µM	0.703 µM	3.94 µM	1.94 µM	9.29 µM	2.03 µM	6.25 µM
O=C1C=CC(=O)c2c1ncc1c2nc2sccn21	12.5 µM	37.8 µM	30.1 µM	> 100 µM	37.6 µM	> 100 µM	16 µM	61.2 µM	12.7 µM	47.4 µM	20.8 µM	64.8 µM	42.8 µM	> 100 µM	3.53 µM	35.3 µM	14.7 µM	77.7 µM	31.9 µM	> 100 µM
O=[N+]([O-])c1ccc(N=Nc2c(O)[nH]c3ccccc23)cc1		> 96.4 µM		> 84.6 µM		51.5 µM		34.6 µM		> 100 µM		35.4 µM		> 100 µM		45.9 µM		> 100 µM		35.8 µM
Oc1cc(Cl)ccc1Cc1ccc(Cl)cc1O	4.95 µM	17.1 µM	5.69 µM	> 100 µM	24.7 µM	57.8 µM	3.86 µM	15 µM	6.01 µM	> 100 µM	12.8 µM	28.4 µM	14.8 µM	38.8 µM	10.5 µM	> 100 µM	9.73 µM	21.4 µM	4.91 µM	29.3 µM
C=C(C)[C@@H]1CC[C@]2(C(=O)NCCNCCNCCN)CC[C@]3(C)[C@H](CC[C@@H]4[C@@]5(C)CCC(=O)C(C)(C)[C@@H]5CC[C@]43C)[C@@H]12	6.65 µM	14.9 µM	8.2 µM	21.8 µM	7.74 µM	17.1 µM	8.72 µM	18.5 µM	6.78 µM	22 µM	5.6 µM	12.5 µM	> 50 µM	> 50 µM	5.91 µM	20.1 µM	7.91 µM	16.6 µM	7.52 µM	18.7 µM
CNCCOC(=O)/C=C1/CCC2C(C(O)CC3C(C)(C(=O)OC)CCCC23C)C1C (stereo not given)	0.0158 µM	0.0311 µM	0.0308 µM	0.0953 µM	0.0191 µM	0.0408 µM	< 0.01 µM	0.0203 µM	0.0248 µM	0.0657 µM	0.0156 µM	0.0521 µM	0.0317 µM	0.0805 µM	0.0198 µM	0.0553 µM	0.018 µM	0.0394 µM	0.0294 µM	0.0762 µM
CC1(C)Cc2c(Br)c(Br)c(Br)c(OCC(O)CN3CCOCC3)c2O1 (stereo not given)	15.4 µM	45.2 µM	3.1 µM	14.3 µM	15.2 µM	34.9 µM	12.4 µM	26.7 µM	3.82 µM	18.7 µM	3.69 µM	13 µM	7.64 µM	23.8 µM	5.14 µM	18.4 µM	15.6 µM	29.8 µM	13.1 µM	27.3 µM
CN1CCC(n2[nH]c(-c3ccccc3)c(Cc3ccccc3)c2=O)CC1		> 100 µM		> 100 µM		> 100 µM		> 100 µM		> 100 µM		> 100 µM		> 100 µM		> 100 µM		> 100 µM		> 100 µM
COc1cc2c(cc1OCCCN1CCN(c3cc(=O)oc4c(C)c(OC)ccc34)CC1)N=C[C@@H]1CCCN1C2=O	1.16 µM	8.94 µM	0.456 µM	> 20.9 µM	1.88 µM	4.03 µM	0.126 µM	1.93 µM	0.214 µM	1.32 µM	0.424 µM	1.02 µM	1.09 µM	3.98 µM	0.248 µM	0.598 µM	1.81 µM	> 100 µM	1.17 µM	
COc1ccc(-c2ccccc2)cc1-c1c(Nc2cc(Cl)cc(Cl)c2O)c(=O)c1=O	1.58 µM	> 50 µM	1.59 µM	> 50 µM	1.57 µM	> 50 µM	1.41 µM	> 50 µM	0.957 µM	2.71 µM	1.48 µM	> 50 µM	1.77 µM	> 50 µM	1.61 µM	21.8 µM	1.7 µM	> 50 µM	1.7 µM	> 50 µM
COc1cc(-c2n/c(=C\c3c(O)[nH]c4ccccc34)cc3c2=Nc2ccccc2-3)cc(OC)c1OC	0.392 µM	2.44 µM	0.586 µM	> 100 µM	4.23 µM	> 100 µM	0.247 µM	0.664 µM	3.09 µM	> 26.4 µM	0.436 µM	5.34 µM	1.41 µM	29.6 µM	0.692 µM	> 29.1 µM	0.449 µM	> 100 µM	1.14 µM	> 22.5 µM
Cc1cc2nc3c4cccc(O)c4n(CCN(C)C)c3nc2cc1C	1.49 µM	7.97 µM	1.24 µM	4.77 µM	3.72 µM	52.9 µM	2.15 µM	6.49 µM	1.36 µM	4.62 µM	2.48 µM	8.98 µM	1.93 µM	4.22 µM	0.767 µM	7.03 µM	1.53 µM	8.08 µM	3.8 µM	27.9 µM
c1cncc(CNc2ncn[nH]2)c1		> 100 µM		> 100 µM		> 100 µM		> 100 µM		> 100 µM		> 100 µM		> 100 µM		> 100 µM		> 100 µM		> 100 µM
Cc1ccc(F)cc1NC(=O)c1cc(Cl)ccc1Nc1ccccc1	> 100 µM	> 100 µM	67.6 µM	> 100 µM	> 100 µM	> 100 µM	> 100 µM	> 100 µM	51.2 µM	> 100 µM	74.7 µM	> 100 µM	> 100 µM	> 100 µM	> 100 µM	> 100 µM	> 100 µM	> 100 µM	> 100 µM	> 100 µM
